# Columns and labels:
# [1] = target: α2β2γ1 GABAA receptor subtype (Homo sapiens (Human), UniProt P47869+Q8N1C3); test: Two-electrode voltage clamp electrophysiology in Xenopus oocytes expressing GABAA receptors (modulation of GABA EC20 current); assay type: cell-based; conditions: for Efficacy (GABA)%: % modulation of GABA EC20 = 100*(Fold increase-1), α2β2γ1 oocytes, compound at approx. 30-fold Ki; for Fold increase h-GABA-A α2β2γ1 oocyte @ 30-fold Ki: Xenopus oocytes expressing α2β2γ1, compound at approx. 30-fold its Ki α2β2γ1, GABA EC20 current
# Summary of the method: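 Each concentration was tested on ≥3 oocytes held at −80 mV at room temperature, recorded 3-5 days post-injection. A control and a test response to EC20 GABA (1.5 min each) were superimposed and their point-by-point ratio taken. Peak ratio reported as % modulation of GABA EC20 = 100×(fold increase−1).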
# [2] = target: human GABAA α1β3γ2 receptor (Homo sapiens (Human), UniProt P14867+P18507); test: Radioligand binding assay for γ2-containing GABAA subtypes, [3H]Flumazenil competition (α1β3γ2); conditions: for γ2/γ1 Selectivity Ratio: Ki α1β3γ2 (nM)/Ki α2β2γ1 (nM); for LogSel: Log[Ki α1β3γ2 (nM)/Ki α2β2γ1 (nM)]
# [3] = target: human GABAA α5β2γ1 receptor (Homo sapiens (Human), UniProt P31644+Q8N1C3); test: Radioligand binding assay for γ1-containing GABAA subtypes, [3H]RO7239181 competition (α5β2γ1)
# [4] = target: human GABAA α1β2γ1 receptor (Homo sapiens (Human), UniProt P14867+Q8N1C3); test: Radioligand binding assay for γ1-containing GABAA subtypes, [3H]RO7239181 competition (α1β2γ1)
# Procedure: The affinity of compounds at GABAA γ1 subunit-containing receptors was measured by competition for [^3H]RO7239181 (67.3 Ci/mmol; Roche) binding to membranes from HEK293F cells (ThermoFisher R79007) expressing human (transiently transfected) receptors of composition α5β2γ1, α2β2γ1, α1β2γ1.
# Harvested pellets from HEK293F cells expressing the different GABAA receptor subtypes were resuspended in Mannitol Buffer pH 7.2-7.4 (Mannitol 0.29 M, Triethylamine 10 mM, Acetic acid 10 mM, EDTA 1 mM plus protease inhibitors (20 tablets Complete, Roche Diagnostics Cat. No. 05 056 489 001 per liter)), washed two times and then resuspended at 1:10 to 1:15 dilution in the same buffer. Cell disruption was performed by stirring the suspension in a Parr vessel #4637 at 435 psi for 15 minutes, and then the suspensions were centrifuged at 1000×g for 15 minutes at 4° C. (Beckman Avanti J-HC; rotor JS-4.2). The supernatant (S1) was transferred in a 2 l Schott flask and the pellet (P1) was resuspended with Mannitol Buffer up to 175 ml. The resuspended pellet was transferred into a 250 ml Corning centrifugal beaker and centrifuged at 1500×g for 10 minutes at 4° C. (Beckman Avanti J-HC; rotor JS-4.2). The supernatant (S1) was then transferred in the 2 l Schott flask and the pellet was discarded. The supernatants (S1) were centrifuged in 500 ml Beckman polypropylene centrifugal beaker at 15′000×g for 30 minutes at 4° C. (Beckman Avanti J-20 XP; rotor JLA-10.500). The pellet (P2) was resuspended with Mannitol Buffer 1:1 and frozen at −80° C. The supernatant (S2) was centrifuged in 100 ml Beckman polypropylene centrifugal tubes at 48000×g for 50 minutes at 4° C. (Beckman Avanti J-20 XP; rotor JA-18). The supernatant (S3) was discarded and the pellet (P3) was resuspended with 1:1 Mannitol Buffer. The P2 and P3 protein concentration was determined with the BIORAD Standard assay method with bovine serum albumin as standard and measured on the NANO-Drop 1000. The membrane suspension was aliquots (500 μl per tube) and stored at −80° C. until required.
# Membrane homogenates were resuspended and polytronised (Polytron PT1200E Kinematica AG) in Potassium Phosphate 10 mM, KCl 100 mM binding buffer at pH 7.4 to a final assay concentration determined with a previous experiment.
# Assays were incubated to equilibrium for 1 hour at 4° C. and then, membranes were filtered onto unifilter (96-well white microplate with bonded GF/C filters preincubated 20-50 minutes in 0.3% Polyethylenimine) with a Filtermate 196 harvester (Packard BioScience) and washed 4 times with cold Potassium Phosphate 10 mM pH 7.4, KCl 100 mM binding buffer. After anhydrousing, filter-retained radioactivity was detected by liquid scintillation counting. Ki values were calculated using Excel-Fit (Microsoft) and are the means of two determinations.
# [5] = target: human GABAA α2β2γ1 receptor (Homo sapiens (Human), UniProt P47869+Q8N1C3); test: Radioligand binding assay for γ1-containing GABAA subtypes, [3H]RO7239181 competition (α2β2γ1)
# [6] = Ki h-GABAA α2β2γ1, [3H]RO7239181 competition binding, human GABAA α2β2γ1
# [7] = Ki h-GABAA α2β2γ1, displacement of [3H]RO7239181, membranes of HEK293F cells expressing human receptors, means of two determinations
SMILES,Efficacy (GABA)% [1] [%],Fold increase h-GABA-A α2β2γ1 oocyte @ 30-fold Ki [1],Ki [2] [nM],γ2/γ1 Selectivity Ratio [2],LogSel [2],Ki [3] [nM],Ki [4] [nM],"Ki [5, 6] [nM]","Ki [5, 7] [nM]"
"C[C@@H]1N=C(c2c(F)cccc2F)c2c(ccc(C(F)(F)F)c2Cl)-n2nc(C(=O)N3CCC3)nc21 [Example 26, azetidin-1-yl-[(4S)-7-chloro-6-(2,6-difluorophenyl)-4-methyl-8-(trifluoromethyl)-4H-[1,2,4]triazolo[1,5-a][1,4]benzodiazepin-2-yl]methanone]",75,1.75,1840,213.1,2.33,2.48,38.1,8.6,8.6
"C[C@@H]1N=C(c2c(F)cccc2F)c2c(ccc(C(F)(F)F)c2Cl)-n2nc(C(=O)N3CC(O)C3)nc21 [Example 58, (3-hydroxyazetidin-1-yl)-[(4S)-7-chloro-6-(2,6-difluorophenyl)-4-methyl-8-(trifluoromethyl)-4H-[1,2,4]triazolo[1,5-a][1,4]benzodiazepin-2-yl]methanone]",112,2.12,1090,156.8,2.20,2.3,23.9,7,7
"C[C@@H]1N=C(c2c(F)cccc2F)c2c(ccc(C(F)(F)F)c2Cl)-n2nc(C(=O)NN(C)C)nc21 [Example 117, (4S)-7-chloro-6-(2,6-difluorophenyl)-N′,N′,4-trimethyl-8-(trifluromethyl)-4H-[1,2,4]triazolo[1,5-a][1,4]benzodiazepine-2-carbohydrazide]",92,1.92,5510,276.4,2.44,3.14,99.2,20,20
"CCOC1CN(C(=O)c2nc3n(n2)-c2ccc(C(F)(F)F)c(Cl)c2C(c2ncccc2F)=N[C@H]3C)C1 [Example 137, [(4S)-7-chloro-6-(3-fluoro-2-pyridyl)-4-methyl-8-(trifluoromethyl)-4H-[1,2,4]triazolo[1,5-a][1,4]benzodiazepin-2-yl]-(3-ethoxyazetidin-1-yl)methanone]",129,2.29,10500,246.0,2.39,6.58,130,42.6,42.6
COC1CN(C(=O)c2nc3n(n2)-c2ccc(C(F)(F)F)c(Cl)c2C(c2c(F)cccc2F)=N[C@H]3C)C1 [Example 23],63,,1140,96.8,,1.63,29,11.8,11.8
"COC1CN(C(=O)c2cn3c(n2)CN=C(c2ccccc2F)c2c-3ccc(Cl)c2Cl)C1 [Example 1, (7,8-dichloro-6-(2-fluorophenyl)-4H-benzo[f]imidazo[1,2-a][1,4]diazepin-2-yl)(3-methoxyazetidin-1-yl)methanone]",77,1.77,638,25.5,1.41,3.19,35.1,25,25
"C[C@@H]1N=C(c2c(F)cccc2F)c2c(ccc(Cl)c2Cl)-n2nc(C(=O)NCCO)nc21 [Example 54, (4S)-7,8-dichloro-6-(2,6-difluorophenyl)-N-(2-hydroxyethyl)-4-methyl-4H-[1,2,4]triazolo[1,5-a][1,4]benzodiazepine-2-carboxamide]",80,1.80,581,132.7,2.12,0.97,15.2,4.4,4.38
"C[C@@H]1N=C(c2ncccc2F)c2c(ccc(C(F)(F)F)c2Cl)-n2nc(C(=O)N3CCC3)nc21 [Example 85, azetidin-1-yl-[(4S)-7-chloro-6-(3-fluoro-2-pyridyl)-4-methyl-8-(trifluoromethyl)-4H-[1,2,4]triazolo[1,5-a][1,4]benzodiazepin-2-yl]methanone]",140,2.40,8860,145.5,2.16,8.51,224,60.9,60.9
"C[C@@H]1N=C(c2c(F)cccc2F)c2c(ccc(C(F)(F)F)c2Cl)-n2nc(C(=O)N3CCS(=O)(=O)CC3)nc21 [Example 114, [(4S)-7-chloro-6-(2,6-difluorophenyl)-4-methyl-8-(trifluoromethyl)-4H-[1,2,4]triazolo[1,5-a][1,4]benzodiazepin-2-yl]-(1,1-dioxo-1,4-thiazinan-4-yl)methanone]",88,1.88,3090,325.5,2.51,3.73,23.2,9.5,9.5
"C[C@@H]1N=C(c2c(F)cccc2F)c2c(ccc(Cl)c2Cl)-n2nc(C(=O)N3CCS(=O)(=O)CC3)nc21 [Example 36, [(4S)-7,8-dichloro-6-(2,6-difluorophenyl)-4-methyl-4H-[1,2,4]triazolo[1,5-a][1,4]benzodiazepin-2-yl]-(1,1-dioxo-1,4-thiazinan-4-yl)methanone]",71,1.71,778,224.7,2.35,0.95,8.25,3.5,3.46
"C[C@@H]1N=C(c2ncccc2F)c2c(ccc(C(F)(F)F)c2Cl)-n2cc(C(=O)NCC(C)(C)O)nc21 [Example 159, (4S)-7-chloro-6-(3-fluoro-2-pyridyl)-N-(2-hydroxy-2-methyl-propyl)-4-methyl-8-(trifluoromethyl)-4H-imidazo[1,2-a][1,4]benzodiazepine-2-carboxamide]",217,3.17,8320,195.6,2.29,11.4,70.4,43,42.6
"C[C@H](O)CNC(=O)c1nc2n(n1)-c1ccc(C(F)(F)F)c(Cl)c1C(c1c(F)cccc1F)=N[C@H]2C [Example 109, (4S)-7-chloro-6-(2,6-difluorophenyl)-N-[(2S)-2-hydroxypropyl]-4-methyl-8-(trifluoromethyl)-4H-[1,2,4]triazolo[1,5-a][1,4]benzodiazepine-2-carboxamide]",126,2.26,3120,258.7,2.41,3.07,40.8,12.1,12.1
